Measurements taken from publication PMC7551886, “Antitumour Effects of Astaxanthin and Adonixanthin on Glioblastoma” (Marine Drugs, 2020).

Key:
Type in all cases: cell-based, mouse
GL261 cells = assay: BrdU cell proliferation assay; settings: GL261, temozolomide group (concentration not printed for this test); control group 60.56 ± 1.40%
Description: GL261 cells were seeded onto 96-well plates at a density of 2 × 10^3 cells/well with DMEM supplemented with 10% FBS and then incubated for 24 h, after which the culture medium was changed to DMEM containing 10% FBS. Then, astaxanthin, adonixanthin, or temozolomide (Tokyo Chemical Industry Co., Ltd., Tokyo, Japan) were added to the culture. After 72 h of culture, the culture medium was changed to DMEM containing 10% FBS and treated with BrdU at 10 µM for 3 h. After that, immunocytochemistry was performed according to the protocol of anti-BrdU antibody (abcam, ab6326).

p27 = assay: Immunoblotting, p27 expression in GL261; settings: GL261, 300 µM temozolomide, 48 h
Description: (§1) GL261 cell was seeded at 2.5 × 10^4 cells per well in 24-well plates with culture medium supplemented with 10% FBS. After 24 h of incubation, the medium was changed to DMEM containing 10% FBS and 0.1%DMSO PBS, 300 μM temozolomide, 10 μM astaxanthin, or 10 μM adonixanthin was added for 6 and 48 h. Cells were lysed in a special buffer (RIPA buffer R0278; Sigma-Aldrich, St. Louis, MO, USA) with a protease inhibitor cocktail (Sigma-Aldrich), phosphatase inhibitor cocktails 2 and 3 (Sigma-Aldrich), and sample buffer (Wako, Osaka, Japan). The protein concentration was determined by comparison with a known concentration of bovine serum albumin using the BCA Protein Assay Kit (Thermo Fisher Scientific). The amount of total protein was 2 μg. Equal amounts of protein in sample buffer containing 10% 2-mercaptoethanol were subjected to sodium dodecyl sulphate polyacrylamide gel electrophoresis (SDS-PAGE) in 5-20% gradient gels (SuperSep Ace; Wako), and the separated proteins were transferred to polyvinylidene difluoride membrane (Immobilon-P; Merck Millipore Corporation, Bedford, MA, USA). After blocking for 30 min with Blocking One-P (Nacalai Tesque), we incubated the membranes with primary antibodies overnight at 4 °C. […] The band intensity was […] an Immuno Star LD (Wako). Band intensity was measured using an LAS-4000 UV mini Luminescent Image Analyzer (Fujifilm, Tokyo Japan) and Multi Gauge Version 3.0 (Fujifilm). The phosphorylation of ERK1/2, Akt, and p38 MAPK was measured by normalizing against total ERK1/2, total Akt, and total p38 MAPK. […]

Bcl-2 = assay: Immunoblotting, Bcl-2 expression in GL261; settings: GL261, 300 µM, 48 h
Description: as §1

`Cn1nnc2c(C(N)=O)ncn2c1=O` [temozolomide, reference compound] was tested, and the BrdU-positive cell rate (GL261 cells) was 19.17 ± 1.77%, the “expression of p27” value (p27) was “significantly reduced” and the “expression of Bcl-2 vs. control” value (Bcl-2) was “N.S”.
